Source: patent US20230257354A1, “NOVEL HETEROCYCLIC COMPOUNDS” (Hoffmann-La Roche Inc., priority 2020, published 2023)
Structures can show the parent of a compound that is named as a salt.

The compounds below were run on Acinetobacter baumannii ATCC17978 (assay: Antimicrobial susceptibility testing, 90% growth inhibitory concentration (IC90) determination, ATCC17978). Conditions: Iso-Sensitest broth, OD 600 nm over 16 h, 35±2° C., read-out: ATCC 17978 IC90.
Assay type: cell-based
In short: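 Serial twofold dilutions (e.g. 50 to 0.097 μM final) in Iso-Sensitest broth, inoculum ~5×10^(5) CFU/ml, incubated 35±2 °C for 16 h. OD600 read every 20 min; growth inhibition calculated during logarithmic growth to derive the concentration inhibiting 90% of growth, in μM.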

| Compound | IC90 |
| --- | --- |
| Cc1cc(NC(=O)c2ncc(-c3ccc(OCC#N)c(F)c3F)n2C)ccc1C(=O)NCCCN1CCNCC1 [Example A12, 5-[4-(cyanomethoxy)-2,3-difluoro-phenyl]-1-methyl-N-[3-methyl-4-(3-piperazin-1-ylpropylcarbamoyl)phenyl]imidazole-2-carboxamide;2,2,2-trifluoroacetic acid] | 340 nM |
| CCc1cc(NC(=O)c2ncc(-c3ccc(OC(F)F)c(F)c3F)n2C)ccc1C(=O)NCCOCCN [Example A17, N-[4-[2-(2-aminoethoxy)ethylcarbamoyl]-3-ethyl-phenyl]-5-[4-(difluoromethoxy)-2,3-difluoro-phenyl]-1-methyl-imidazole-2-carboxamide;hydrochloride] | 400 nM |
| COc1ccc(-c2cnc(C(=O)Nc3ccc(C(=O)NCC4CC(N)C4)c(Cl)c3)n2C)c(F)c1F (stereo not shown) [Example A8, N-[4-[(3-aminocyclobutyl)methylcarbamoyl]-3-chloro-phenyl]-5-(2,3-difluoro-4-methoxy-phenyl)-1-methyl-imidazole-2-carboxamide;formic acid] | 500 nM |
| COc1ccc(-c2cnc(C(=O)Nc3ccc(C(=O)NCCOCCN)c(Cl)c3)n2C)c(F)c1F [Example A1, N-[4-[2-(2-Aminoethoxy)ethylcarbamoyl]-3-chloro-phenyl]-5-(2,3-difluoro-4-methoxy-phenyl)-1-methyl-imidazole-2-carboxamide] | 240 nM |

Now from value to compound:

| IC90 | Compound |
| --- | --- |
| 760 nM | CCc1cc(NC(=O)c2ncc(-c3ccc(OC(F)F)c(F)c3F)n2C)ccc1C(=O)NCCCNC(=O)C1CCNCC1 [Example B12, N-[3-[[4-[[5-[4-(difluoromethoxy)-2,3-difluoro-phenyl]-1-methyl-imidazole-2-carbonyl]amino]-2-ethyl-benzoyl]amino]propyl]piperidine-4-carboxamide;formic acid] |
| 510 nM | COc1ccc(-c2cnc(C(=O)Nc3ccc(C(=O)NCCNC(=O)N[C@@H]4CNC[C@H]4O)c(C)c3)n2C)c(F)c1F [Example B28, 5-(2,3-difluoro-4-methoxy-phenyl)-N-[4-[2-[[(3R,4R)-4-hydroxypyrrolidin-3-yl]carbamoylamino]ethylcarbamoyl]-3-methyl-phenyl]-1-methyl-imidazole-2-carboxamide;formic acid] |
| 850 nM | CC[C@]1(O)CN[C@@H](C(=O)NCCNC(=O)c2ccc(NC(=O)c3ncc(-c4ccc(OCC#N)c(F)c4F)n3C)cc2Cl)C1 [Example B37, N-[3-chloro-4-[2-[[(2R,4R)-4-ethyl-4-hydroxy-pyrrolidine-2-carbonyl]amino]ethylcarbamoyl]phenyl]-5-[4-(cyanomethoxy)-2,3-difluoro-phenyl]-1-methyl-imidazole-2-carboxamide;formic acid] |
| 1200 nM | COc1ccc(-c2cnc(C(=O)Nc3ccc(C(=O)NCCNC(=O)[C@H]4C[C@@](C)(O)CN4)c(C)c3)n2C)c(F)c1F [Example B26, 5-(2,3-difluoro-4-methoxy-phenyl)-N-[4-[2-[[(2R,4R)-4-hydroxy-4-methyl-pyrrolidine-2-carbonyl]amino]ethylcarbamoyl]-3-methyl-phenyl]-1-methyl-imidazole-2-carboxamide;formic acid] |
| 300 nM | CCc1cc(NC(=O)c2ncc(-c3ccc(OC)c(F)c3F)n2C)ccc1C(=O)NC1CN(C(=O)CN)C1 [Example B23, N-[4-[[1-(2-aminoacetyl)azetidin-3-yl]carbamoyl]-3-ethyl-phenyl]-5-(2,3-difluoro-4-methoxy-phenyl)-1-methyl-imidazole-2-carboxamide;formic acid] |
| 3200 nM | CNC(=O)c1ccc(NC(=O)c2ncc(-c3ccc(OC)cc3)n2C)cc1C [Example D1, 5-(4-Methoxyphenyl)-1-methyl-N-[3-methyl-4-(methylcarbamoyl)phenyl]imidazole-2-carboxamide] |
